Laboratory results published in patent US8673889B2, “BLT2-mediated disease, BLT2 binding agent and the compound” (Ono Pharmaceutical Co., Ltd., priority 2004, dated 2014).

Target: T1, BLT2 (Homo sapiens, UniProt Q9NPC1)
T1 sequence (Q9NPC1 1-358): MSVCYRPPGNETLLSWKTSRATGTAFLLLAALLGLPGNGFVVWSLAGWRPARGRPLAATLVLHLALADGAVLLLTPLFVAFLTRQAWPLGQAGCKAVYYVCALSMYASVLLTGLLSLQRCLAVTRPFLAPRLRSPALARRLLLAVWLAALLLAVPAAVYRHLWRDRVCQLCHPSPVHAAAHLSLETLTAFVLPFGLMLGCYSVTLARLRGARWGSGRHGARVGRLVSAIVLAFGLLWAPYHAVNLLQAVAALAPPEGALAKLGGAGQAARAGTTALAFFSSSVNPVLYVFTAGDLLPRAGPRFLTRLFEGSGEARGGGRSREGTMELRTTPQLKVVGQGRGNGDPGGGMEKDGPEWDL
Test: Evaluation of BLT2 agonistic activity by monitoring the variation of intracellular Ca2+ concentration
Type: cell-based
Design: expressed in transfected cells
Conditions: classification of the compounds (1) to (46)

Structure (SMILES) | BLT2 agonistic activity
CCCCN(Cc1ccc(-c2ccccc2-c2nnn[nH]2)cc1)C(=O)Nc1cccc(OC)c1 [(16), N-butyl-N′-(3-methoxyphenyl)-N-{[2′-(1H-tetrazol-5-yl)biphenyl-4-yl]methyl}urea] | BLT2 agonistic activity
CCCCN(Cc1ccc(-c2ccccc2-c2nnn[nH]2)cc1)C(=S)NCC(=O)OC [(10), methyl N-[(butyl {[2′-(1H-tetrazol-5-yl)biphenyl-4-yl]methyl}amino)carbonothioyl]glycinate] | BLT2 agonistic activity
CCCCN(Cc1ccc(-c2ccccc2-c2nnn[nH]2)cc1)C(=O)NC(C)C [(7), N-butyl-N′-isopropyl-N-{[2′-(1H-tetrazol-5-yl)biphenyl-4-yl]methyl}urea] | BLT2 agonistic activity
CCCCNC(=O)N(CCCC)Cc1ccc(-c2ccccc2-c2nnn[nH]2)cc1 [(11), N,N′-dibutyl-N-{[2′-(1H-tetrazol-5-yl)biphenyl-4-yl]methyl}urea] | BLT2 agonistic activity
CCCCN(Cc1ccc(-c2ccccc2-c2nnn[nH]2)cc1)C(=O)Nc1sc2c(c1C(=O)O)CCCC2 [(40), 2-{[(butyl{[2′-(1H-tetrazol-5-yl)biphenyl-4-yl]methyl}amino)carbonyl]amino}-4,5,6,7-tetrahydro-1-benzothiophen-3-carboxylic acid] | BLT2 agonistic activity
CCCCN(Cc1ccc(-c2ccccc2-c2nnn[nH]2)cc1)C(=O)N[C@@H](C)c1ccccc1 [(21), N-butyl-N′-[(1S)-1-phenylethyl]-N-{[2′-(1H-tetrazol-5-yl)biphenyl-4-yl]methyl}urea] | BLT2 agonistic activity
CCCCN(Cc1ccc(-c2ccccc2-c2nnn[nH]2)cc1)C(=O)Nc1ccc(OC)cc1 [(17), N-butyl-N′-(4-methoxyphenyl)-N-{[2′-(1H-tetrazol-5-yl)biphenyl-4-yl]methyl}urea] | BLT2 agonistic activity
CCCCN(Cc1ccc(-c2ccccc2-c2nnn[nH]2)cc1)C(=O)Nc1cccc(C(=O)OCC)c1 [(19)] | BLT2 agonistic activity
CCCCN(Cc1ccc(-c2ccccc2-c2nnn[nH]2)cc1)C(=O)Nc1ccccc1 [(13), N-butyl-N′-phenyl-N-{[2′-(1H-tetrazol-5-yl)biphenyl-4-yl]methyl}urea] | BLT2 agonistic activity
CCCCN(Cc1ccc(-c2ccccc2-c2nnn[nH]2)cc1)C(=O)Nc1ccc(C)cc1 [(20), N-butyl-N′-(4-methylphenyl)-N-{[2′-(1H-tetrazol-5-yl)biphenyl-4-yl]methyl}urea] | BLT2 agonistic activity
CCCCN(Cc1ccc(-c2ccccc2-c2nnn[nH]2)cc1)C(=O)NCCc1ccc(O)cc1 [(9), N-butyl-N′-[2-(4-hydroxyphenyl)ethyl]-N-{[2′-(1H-tetrazol-5-yl)biphenyl-4-yl]methyl}urea] | BLT2 agonistic activity
CCCCN(Cc1ccc(-c2ccccc2-c2nnn[nH]2)cc1)C(=O)NCCN1CCOCC1 [(45), N-butyl-N′-(2-morpholin-4-ylethyl)-N-{[2′-(1H-tetrazol-5-yl)biphenyl-4-yl]methyl}urea] | BLT2 agonistic activity
CCCCN(Cc1ccc(-c2ccccc2-c2nnn[nH]2)cc1)C(=O)NCc1ccccc1 [(22), N′-benzyl-N-butyl-N-{[2′-(1H-tetrazol-5-yl)biphenyl-4-yl]methyl}urea] | BLT2 agonistic activity
CCCCN(Cc1ccc(-c2ccccc2-c2nnn[nH]2)cc1)C(=O)NCC1CCCO1 (stereo not shown) [(43), N-butyl-N′-(tetrahydrofuran-2-ylmethyl)-N-{[2′-(1H-tetrazol-5-yl)biphenyl-4-yl]methyl}urea] | BLT2 agonistic activity
CCCCN(Cc1ccc(-c2ccccc2-c2nnn[nH]2)cc1)C(=O)NC1CCCCC1 [(12), N-butyl-N′-cyclohexyl-N-{[2′-(1H-tetrazol-5-yl)biphenyl-4-yl]methyl}urea] | BLT2 agonistic activity
CCCCN(Cc1ccc(-c2ccccc2-c2nnn[nH]2)cc1)C(=O)NCCc1ccccc1 [(5), N-butyl-N′-(2-phenylethyl)-N-{[2′-(1H-tetrazol-5-yl)biphenyl-4-yl]methyl}urea] | BLT2 agonistic activity
CCCCN(Cc1ccc(-c2ccccc2-c2nnn[nH]2)cc1)C(=O)Nc1ccc(F)c(F)c1 [(30), N-butyl-N′-(3,4-difluorophenyl)-N-{[2′-(1H-tetrazol-5-yl)biphenyl-4-yl]methyl}urea] | BLT2 agonistic activity
CCCCN(Cc1ccc(-c2ccccc2-c2nnn[nH]2)cc1)C(=O)Nc1ccccc1O [(39), N-butyl-N′-(2-hydroxyphenyl)-N-{[2′-(1H-tetrazol-5-yl)biphenyl-4-yl]methyl}urea] | BLT2 agonistic activity
CCCCN(Cc1ccc(-c2ccccc2-c2nnn[nH]2)cc1)C(=O)NC(=O)OCC [(34), ethyl[(butyl{[2′-(1H-tetrazol-5-yl)biphenyl-4-yl]methyl}amino)carbonyl]carbamate] | BLT2 agonistic activity
